In article PMC4389562, “Antigiardial activity of novel triazolyl-quinolone-based chalcone derivatives: when oxygen makes the difference” (Frontiers in Microbiology, 2015):
Where two headings read alike, the source gives them in different places. Values belong to the compound of their own block, whether it stands above or below them.

Key:
Giardia = tested on: Giardia; parameters: method as in Cedillo-Rivera and Munoz, 1992; settings: anaerobic conditions; ref Cedillo-Rivera and Munoz, 1992; read-out: IC50 against Giardia under anaerobic conditions; cited from earlier work
[1] = tested on: Giardia intestinalis trophozoites; assay: Drug susceptibility of Giardia trophozoites, ATP level by luminescence (BacTiter-Glo), 48 h incubation, anaerobic or microaerobic; format: cell-based, Giardia intestinalis strain WB clone C6; settings: for IC50: Giardia duodenalis, 48 h, 37 °C, ATP level; for selectivity ratio at 48 h: human (Caco-2 cells) versus Giardia intestinalis, Caco-2, SI = IC50,Caco-2/IC50,Giardia
Experimental: Trophozoites of G. intestinalis strain WB clone C6 (ATCC No. 50803TM) were cultured axenically at 37^∘C in 25-cm^2 flasks containing Diamond's TYI-S-33 medium supplemented with 10% bovine calf serum, 1 mg/mL bovine bile, 0.1 g/L streptomycin and 100 U/mL penicillin. Typically, 50 ml medium was inoculated with 25 × 10^6 cells and after 2 days cells were harvested by chilling the flasks on ice for 30 min for drug susceptibility assays. […] The assays were performed following the procedure described in [Bahadur et al. (2014)], using sterile 96-well white clear-bottom plates. […] Each drug concentration was tested in at least six replicates. MTZ was used as an internal positive control in the assay. The microtiter plates were then incubated at 37^∘C under anaerobic or microaerobic conditions, ensured by the Anaerocult® A or the Anaerocult® […] (Merck), respectively. […] Following 48 h incubation with the compound to be tested, 100 μL of the BacTiter-Glo^TM Microbial Cell Viability Assay System reagent (Promega) was added to each well for one-step lysis and ATP level detection. Plates were then incubated at room temperature for 15 min and ATP levels finally detected by luminescence on a plate reader (Wallac Victor3 1420 Multilabel Counter, PerkinElmer). Luminometric data were calibrated using ATP standard curves and normalized to the ATP level measured in control DMSO-treated cells (taken as 100%). The measured ATP level percentage was plotted as a function of the compound concentration and the half-maximal inhibitory concentration (IC50) was obtained by fitting the resulting titration profile to the Hill equation ([Goutelle et al., 2008]). The selectivity index (SI) of the compounds was then calculated as the ratio between the IC50 value measured on human cells over the value determined on Giardia trophozoites (SI = IC50,Caco-2/IC50,Giardia). The antigiardial activity of the novel compounds 23-67 was tested under both anaerobic and microaerobic conditions. According to ([Dunn et al., 2010]; [Bahadur et al., 2014]), susceptibility of Giardia trophozoites to increasing concentrations of each compound was assessed based on ATP level determination by luminescence. Dose-response curves for each compound were obtained after 48 h-incubation and compared to the data collected under identical conditions with MTZ, the drug of choice for treatment of giardiasis. […] Typical dose-response curves are shown in Figure 2, whereas the IC50 values measured for the synthetic compounds and MTZ under anaerobic and microaerobic conditions are reported in Table 1. […] Under anaerobic conditions, 18 out of the 45 synthetic compounds were as effective as MTZ or more under identical conditions (see Table 1).

Caco-2 cells = assay: Counter-screen on Caco-2 cells, ATP level by luminescence (ATPlite), 48 h incubation; format: cell-based, human; settings: atmospheric O2, 5% CO2, 48 h, 37 °C
Experimental: Trophozoites of G. intestinalis strain WB clone C6 (ATCC No. 50803TM) were cultured axenically at 37^∘C in 25-cm^2 flasks containing Diamond’s TYI-S-33 medium supplemented with 10% bovine calf serum, 1 mg/mL bovine bile, 0.1 g/L streptomycin and 100 U/mL penicillin. […] Human epithelial colorectal adenocarcinoma (Caco-2) cells were grown in 25-cm^2 flasks in EMEM supplemented with 1% (v/v) non-essential amino acids, 2 mM glutamine, 5% (v/v) fetal bovine serum, 0.1 g/L streptomycin, and 100 U/mL penicillin.
Cells were detached with 0.5% trypsin-EDTA and seeded in sterile 96-well white clear-bottom plates at the same density of Giardia trophozoites and at increasing concentration of the compound to be tested, as described above. The assays were carried out exactly as reported for the Giardia trophozoites, except that the plates were incubated (still at 37^∘C) at atmospheric O2 level, 5% CO2, and 95% humidity. Each drug concentration was tested in at least seven replicates. MTZ was used as an internal […] control in the assay. Following 48 h incubation with each compound, according to the manufacturer instructions, 100 μL of the ATPlite^TM luminescence assay system (Perkin Elmer) was added to each well for one-step lysis and ATP level detection by luminescence.
Luminometric data were calibrated using ATP standard curves and normalized to the ATP level measured in control DMSO-treated cells (taken as 100%). The measured ATP level percentage was plotted as a function of the compound concentration and the half-maximal inhibitory concentration (IC50) was obtained by fitting the resulting titration profile to the Hill equation ([Goutelle et al., 2008]). The selectivity index (SI) of the compounds was then calculated as the ratio between the IC50 value measured on human cells over the value determined on Giardia trophozoites (SI = IC50,Caco-2/IC50,Giardia).
Selectivity of the newly synthesized compounds toward Giardia was assessed by running a counter-screen on human epithelial Caco-2 cells. […] This allowed us to calculate the compounds SI, defined as the ratio between the IC50 value measured on human cells over the value determined on Giardia trophozoites.

[2] = anaerobic conditions (Anaerocult A), read-out: Giardia (anaerobiosis) IC50
[3] = microaerobic conditions (~5% O2, Anaerocult C), read-out: Giardia (microaerobiosis) IC50
[4] = Giardia under anaerobiosis, read-out: Selectivity (IC50,Caco/IC50,Giardia) Anaerobiosis
[5] = Giardia under microaerobiosis, read-out: Selectivity (IC50,Caco/IC50,Giardia) Microaerobiosis

melting point: 215 to 217 °C
Compound: COc1ccc(C(=O)/C=C/c2cc3ccccc3n(Cc3cn(-c4ccccc4)nn3)c2=O)cc1 [Compound 67]
IC50 [1, 2]: 5.9 µM
IC50 [1, 3]: 0.8 µM
selectivity ratio at 48 h [1, 4]: ≥ 16
selectivity ratio at 48 h [1, 5]: ≥ 125
IC50 (Caco-2 cells; Homo sapiens, Caco-2, 48 h): ≥ 100 µM

melting point: 180 to 182 °C
Compound: O=C(/C=C/c1cc2ccccc2n(Cc2cn(-c3ccccc3)nn2)c1=O)c1cccc(F)c1 [Compound 60]
IC50 [1, 2]: 3.5 µM
IC50 [1, 3]: 0.7 µM
selectivity ratio at 48 h [1, 4]: ≥ 14
selectivity ratio at 48 h [1, 5]: ≥ 71
IC50 (Caco-2 cells; Homo sapiens, Caco-2, 48 h): ≥ 50 µM

melting point: 224 to 226 °C
Compound: COc1cccc(C(=O)/C=C/c2cc3ccccc3n(Cc3cn(-c4ccccc4)nn3)c2=O)c1 [Compound 66]
IC50 [1, 2]: 3.2 µM
IC50 [1, 3]: 1.6 µM
selectivity ratio at 48 h [1, 4]: > 15
selectivity ratio at 48 h [1, 5]: > 30
IC50 (Caco-2 cells; Homo sapiens, Caco-2, 48 h): ≥ 40 µM
IC50 (Caco-2 cells): ≥ 50 µM

melting point: 230 to 232 °C
Compound: COc1ccccc1C(=O)/C=C/c1cc2ccccc2n(Cc2cn(-c3ccc(Cl)cc3)nn2)c1=O [Compound 56]
IC50 [1, 2]: 3.2 µM
IC50 [1, 3]: 0.6 µM
selectivity ratio at 48 h [1, 4]: 2.6
selectivity ratio at 48 h [1, 5]: 14
IC50 (Caco-2 cells; Homo sapiens, Caco-2, 48 h): 8.4 µM

melting point: 180 to 182 °C
Compound: O=C(/C=C/c1cc2ccccc2n(Cc2cn(-c3ccc(Cl)cc3)nn2)c1=O)c1ccc(Cl)cc1 [Compound 53]
IC50 [1, 2]: 9 µM
IC50 [1, 3]: 1.1 µM
selectivity ratio at 48 h [1, 4]: ≥ 3
selectivity ratio at 48 h [1, 5]: ≥ 27
IC50 (Caco-2 cells; Homo sapiens, Caco-2, 48 h): ≥ 30 µM

Continued, compound first:

Compound: CCCSc1ccc2nc(NC(=O)OC)[nH]c2c1 [albendazole]
IC50 (Giardia): < 0.1 µM

Compound: COc1ccccc1C(=O)/C=C/c1cc2ccccc2n(Cc2cn(-c3ccc(F)cc3)nn2)c1=O [Compound 47]
IC50 [1, 2]: 2.7 µM
IC50 [1, 3]: 0.3 µM
selectivity ratio at 48 h [1, 4]: ≥ 7
selectivity ratio at 48 h [1, 5]: ≥ 66
IC50 (Caco-2 cells; Homo sapiens, Caco-2, 48 h): ≥ 20 µM
melting point: 132 to 134 °C

Compound: COc1ccc(C(=O)/C=C/c2cc3ccccc3n(Cc3cn(-c4ccc(C)cc4)nn3)c2=O)cc1 [Compound 40]
IC50 [1, 2]: ≥ 15 µM
IC50 [1, 3]: 2.4 µM
selectivity ratio at 48 h [1, 5]: ≥ 25
IC50 (Caco-2 cells; Homo sapiens, Caco-2, 48 h): ≥ 60 µM
melting point: 182 to 184 °C

Compound: COc1ccc(-n2cc(Cn3c(=O)c(/C=C/C(=O)c4ccc(F)cc4)cc4ccccc43)nn2)cc1 [Compound 25]
IC50 [1, 2]: 3.9 µM
IC50 [1, 3]: 1.3 µM
selectivity ratio at 48 h [1, 4]: ≥ 5
selectivity ratio at 48 h [1, 5]: ≥ 15
IC50 (Caco-2 cells; Homo sapiens, Caco-2, 48 h): ≥ 20 µM
melting point: 211 to 213 °C

Compound: Cc1ccc(C(=O)/C=C/c2cc3ccccc3n(Cc3cn(-c4ccc(C)cc4)nn3)c2=O)cc1 [Compound 37]
IC50 [1, 2]: 6.3 µM
IC50 [1, 3]: 1.6 µM
selectivity ratio at 48 h [1, 4]: ≥ 7
selectivity ratio at 48 h [1, 5]: ≥ 31
IC50 (Caco-2 cells; Homo sapiens, Caco-2, 48 h): ≥ 50 µM
melting point: 202 to 204 °C

Compound: Cc1ccc(-n2cc(Cn3c(=O)c(/C=C/C(=O)c4ccccc4F)cc4ccccc43)nn2)cc1 [Compound 32]
IC50 [1, 2]: 3.2 µM
IC50 [1, 3]: 0.6 µM
selectivity ratio at 48 h [1, 4]: 5.5
selectivity ratio at 48 h [1, 5]: 29.3
IC50 (Caco-2 cells; Homo sapiens, Caco-2, 48 h): 17.6 µM
melting point: 197 to 199 °C

Compound: COc1ccc(C(=O)/C=C/c2cc3ccccc3n(Cc3cn(-c4ccc(OC)cc4)nn3)c2=O)cc1 [Compound 31]
IC50 [1, 2]: ≥ 50 µM
IC50 [1, 3]: 2 µM
selectivity ratio at 48 h [1, 5]: ≥ 40
IC50 (Caco-2 cells; Homo sapiens, Caco-2, 48 h): ≥ 80 µM
melting point: 190 to 192 °C
